Data: paper PMC5214846 (Structure (London, England : 1993), 2016)
Like-named read-outs stand apart in the source and are kept apart here.

Legend:
[1] = target: T1, ELIC (Dickeya chrysanthemi, UniProt P0C7B7); experiment: Functional measurements of Xenopus laevis oocytes expressing ELIC; details: for Modulation of ELIC at low agonist concentration (EC3) / Modulation of ELIC at EC20: representative traces; for Modulation of ELIC at EC20: agonist EC20
[2] = tested on: ELIC-α1β3GABAAR; assay type: cell-based; details: for Modulation of ELIC-α1β3GABAAR at EC20: agonist EC20
[3] = target: T1, ELIC; details: cited from earlier work
[4] = Highest soluble concentration of long-chain alcohols

T1 sequence (P0C7B7 whole entry): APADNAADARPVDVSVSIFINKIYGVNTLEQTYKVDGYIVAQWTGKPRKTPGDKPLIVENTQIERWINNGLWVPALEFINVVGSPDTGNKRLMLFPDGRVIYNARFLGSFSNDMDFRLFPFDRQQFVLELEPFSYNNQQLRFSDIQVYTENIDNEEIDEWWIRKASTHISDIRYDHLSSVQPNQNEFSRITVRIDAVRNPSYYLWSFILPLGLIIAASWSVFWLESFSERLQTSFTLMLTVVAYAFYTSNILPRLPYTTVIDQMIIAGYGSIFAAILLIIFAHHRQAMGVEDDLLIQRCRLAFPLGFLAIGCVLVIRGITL

Row | Structure (SMILES) | Modulation of ELIC at low agonist concentration (EC3) [1] | Modulation of ELIC at EC20 [1] | Modulation of ELIC-α1β3GABAAR at low agonist concentration (EC3) [2] | Modulation of ELIC-α1β3GABAAR at EC20 [2] | other results
1 | OCCBr [BrEtOH, 2-bromoethanol] | inhibition | strongly inhibit | potentiate | some potentiation | –
2 | CCO [EtOH, ethanol] | inhibition | strongly inhibit | potentiate | no inhibition | –
3 | FC(F)OC(Cl)C(F)(F)F (stereo not drawn) [isoflurane] | – | – | – | – | Effect on ELIC ([3]; binding to the pore at 6′ and 13′ positions, ref Chen et al., 2015): inhibits
4 | CCCCCCCCCCO [n-decanol] | – | – | – | – | Inhibition of ELIC at highest soluble concentration ([1]; n-decanol ~0.3 mM, n-dodecanol ~0.02 mM, PPA-elicited current): much weaker inhibition than n-nonanol or n-hexanol; Highest soluble concentration [4]: ~ 0.3 mM
5 | CC(C)c1cccc(C(C)C)c1O [propofol] | – | – | – | – | Effect on ELIC ([3]; through a common TMD intra-subunit binding pocket, ref Kinde et al., 2016): inhibit
